Like-named read-outs stand apart in the source and are kept apart here.

The values below come from publication PMC10607708 (Journal of natural products, 2021).

Data set [1] is classed as in vivo, C57BL/6 mice. To be noted: for bioavailability: C57BL/6, mouse, whole blood, ip, 500 mg/kg; for AUC0-t /Dose / Cmax/Dose: blood.
Data set [2] deals with PGE2. The experiment in a line: PGE2 assay in LPS-stimulated SCC-9 cells. Particulars: LC-MS/MS. It is filed as cell-based.
Data set [3] is described as follows: Saliva levels after intraperitoneal administration of ATB. It is filed as in vivo, C57BL/6 mice. To be noted: for detection in mouse saliva: i.p. 500 mg/kg ATB q.d., 7 consecutive days.
Data set [4] concerns salivary gland adenoid cystic carcinoma cells (ACC-M). To be noted: in vitro; cited from earlier work.
The nature of data set [5]: Stability in saliva. The class given is in vitro ADME.
Data set [6] is described as follows: Pharmacokinetics after i.v. administration of ATB, blood. The class given is in vivo, C57BL/6 mice. To be noted: 500 mg/kg ATB IV, matrine dosage 2.79 mg/kg.
In data set [7] the test system is Cal-27. The experiment in a line: MTT anti-proliferation assay in Cal-27 cells. The class given is cell-based. Particulars: in words. Background: Formazan colour is commonly taken as a measure of viable cells.
Data set [8] can be described thus: Pharmacokinetics after oral administration of ATB or pure KACs, blood. The class given is in vivo, C57BL/6 mice. Particulars: for AUC0-t /Dose / Cmax/Dose: blood.
Setting [9] is: 500 mg/kg ATB IP Day 1, matrine dosage 2.79 mg/kg.
[10] abbreviates: 500 mg/kg ATB IP Day 7, matrine dosage 2.79 mg/kg.
Setting [11] is: saliva, 500 mg/kg ATB IP Day 7, matrine dosage 2.79 mg/kg.
The mark [12] stands for this setting: 5 mg/kg KAC Oral (pure compound), matrine dosage 5.00 mg/kg.
The mark [13] stands for this setting: 100 mg/kg ATB Oral, matrine dosage 0.56 mg/kg.
The mark [14] stands for this setting: 500 mg/kg ATB Oral, matrine dosage 2.79 mg/kg.
Setting [15] is: 4000 mg/kg ATB Oral, matrine dosage 22.32 mg/kg.

Take `CC1=C2C(=O)O[C@@H](c3ccoc3)[C@]2(C)CCC1` [Fraxinellone, fraxinellone]: the bioavailability (in general, dose-corrected exposure relative to a reference, in per cent) in data set [1] was 2.8 ± 2.1%. For the same molecule, in data set [2] (25 μM), the “inhibition of PGE2 production” value is listed as “significant inhibition”. Besides, in data set [3], the “detection in mouse saliva” value was “no Frax or Maac detected”.
Turning to `O=C1CCC[C@@H]2[C@H]3CCCN4CCC[C@@H](CN12)[C@@H]34` [Matrine, matrine], the “effect on adhesion and invasion properties of ACC-M cells” value in data set [4] is on record as “inhibit”. Also, in data set [1], the bioavailability was found to be 28.9 ± 11%. Also, the “AUC0-t /Dose” value in data set [1] (setting [9]) was 528.7 ± 200.9 (hr*ng/mL)/(mg/kg); in data set [1] (setting [10]), 592.0 ± 434.7 (hr*ng/mL)/(mg/kg); in data set [3] (setting [11]) it was 952.8 ± 594.4 (hr*ng/mL)/(mg/kg); in data set [6], 1830.0 ± 1241.2 (hr*ng/mL)/(mg/kg); in data set [8] (setting [12]), 46.9 ± 13.0 (hr*ng/mL)/(mg/kg); in data set [8] (setting [13]), 58.5 ± 32.7 (hr*ng/mL)/(mg/kg). Also, the results for the “AUC0-t /Dose” value in data set [8] (setting [14]) and in data set [8] (setting [15]) were 43.1 ± 21.3 (hr*ng/mL)/(mg/kg) and 164.1 ± 60.0 (hr*ng/mL)/(mg/kg), respectively. For the same molecule, the Cmax/Dose is recorded as 292.4 ± 147.8 (ng/mL)/(mg/kg) in data set [1] (setting [9]); 197.8 ± 144.1 (ng/mL)/(mg/kg) in data set [1] (setting [10]); 1533.9 ± 823.5 (ng/mL)/(mg/kg) in data set [3] (setting [11]); 1408.3 ± 835.8 (ng/mL)/(mg/kg) in data set [6]; 22.0 ± 7.4 (ng/mL)/(mg/kg) in data set [8] (setting [12]); 25.9 ± 20.5 (ng/mL)/(mg/kg) in data set [8] (setting [13]). The Cmax/Dose is given as 19.3 ± 10.2 (ng/mL)/(mg/kg) in data set [8] (setting [14]) and 31.8 ± 10.6 (ng/mL)/(mg/kg) in data set [8] (setting [15]). Moreover, the “accumulation in the body after multiple-dose administration” value in data set [1] (in words, Fig 5) is reported as “no accumulation”. In data set [2] (50 μM), the “inhibition of PGE2 production” value is “significant inhibition”. Besides, the AUC(0-t) (commonly exposure summed from dosing to a finite time, without extrapolation to infinity) in data set [3] (C57BL/6, mouse, saliva, ip, 500 mg/kg) is 2680 ± 1660 ng·h/mL. The “detection in mouse saliva” value in data set [3] is “detected”. Moreover, the stability in saliva in data set [5] (room temperature) worked out at 4 h; in data set [5] (−20 °C), 170 h. Besides, in data set [7], the “inhibition effect against Cal-27 cells” value is “moderate inhibition effect”. The “increase of dose-normalized AUC” value in data set [8] (oral ATB, from 500 mg/kg to 4000 mg/kg) was ~ 400%.
As for `Oc1ccc2c(c1)OCC1c3cc4c(cc3OC21)OCO4` (stereo not shown) [Maackiain, maackiain], the bioavailability in data set [1] stood at 4.8 ± 4.2%. In addition, the “detection in mouse saliva” value in data set [3] was “no Frax or Maac detected”.
